27 molecules from ChEMBL document CHEMBL2396563, “Inhibitory constituents of the heartwood of Dalbergia odorifera on nitric oxide production in RAW 264.7 macrophages” (Bioorg Med Chem Lett, 2013) can be followed below.

As usually defined, the IC50 is the concentration that inhibits the measured activity by half.

Data set [1] in a line: Antiinflammatory activity in mouse RAW264.7 cells assessed as inhibition of LPS-induced nitric oxide production after 24 hrs by Griess assay. It is filed as functional, cell-based. Particulars: RAW264.7, 24 h. In general terms: Griess reagent forms a coloured azo dye with nitrite.
A short description of data set [2]: Cytotoxicity against mouse RAW264.7 cells by CCK assay. It is filed as cell-based.

Take `O=C(c1ccc(O)cc1O)[C@H](O)Cc1ccc(O)c(O)c1`: the IC50 in data set [1] is greater than 100 µM. The Activity result in data set [2] is reported as “Non-toxic”.

On to `C=C[C@H](c1ccccc1O)c1cc(O)c(OC)cc1OC` [LATIFOLIN], for which, in data set [1], the IC50 was 73.2 µM. Also, in data set [2], the Activity entry is “Non-toxic”.

As for `COc1ccc(-c2coc3cc(O)ccc3c2=O)c(OC)c1` [2'-METHOXYFORMONETIN], in data set [1], the IC50 is greater than 100 µM. The Activity result in data set [2] is “Non-toxic”.

In the case of `O=C(/C=C/c1ccc(O)c(O)c1)c1ccc(O)cc1O` [BUTEIN], the IC50 in data set [1] amounted to 35.1 µM. For the same molecule, the Activity entry in data set [2] is recorded as “Non-toxic”. The matching figures for `O=C1C[C@@H](c2cc(O)cc(O)c2)Oc2cc(O)cc(O)c21`: greater than 100 µM and “Non-toxic”. For `COc1ccc2c(c1)O[C@H]1c3ccc(O)cc3OC[C@@H]21`, the IC50 in data set [1] turned out to be 83.7 µM. Also, in data set [2], the Activity result is listed as “Non-toxic”.

For the molecule `COc1cc(O)c2c(c1)O[C@H](c1ccccc1)CC2=O` [PINOSTROBIN], the IC50 in data set [1] is 53.5 µM. In data set [2], the Activity result is listed as “Non-toxic”.

On to `COc1ccc([C@@H]2COc3cc(O)ccc3C2=O)c(OC)c1O` [(3R)-VIOLANONE], for which the IC50 in data set [1] is greater than 100 µM. Besides, in data set [2], the Activity entry is given as “Non-toxic”. In the case of `O=c1c(-c2ccc(O)cc2)coc2cc(O)ccc12` [DAIDZEIN], the IC50 in data set [1] was greater than 100 µM. In data set [2], the Activity result is “Non-toxic”. Regarding `COc1ccc([C@@H]2COc3cc(O)ccc3C2=O)c(OC)c1` [(3R)-SATIVANONE], in data set [1], the IC50 is greater than 100 µM. Also, in data set [2], the Activity entry is on record as “Non-toxic”. For `O=C1C[C@@H](c2ccccc2)Oc2cc(O)cc(O)c21` [PINOCEMBRIN], in that order: 18.1 µM and “Non-toxic”. For `COc1cc2oc(=O)cc(-c3ccc(O)c(O)c3)c2cc1O`, in that order: 45.5 µM and “Non-toxic”. The matching figures for `COc1cc2c(cc1O)C(=O)C[C@@H](c1ccc(O)cc1)O2`: greater than 100 µM and “Non-toxic”. Consider `COc1cc2c(=O)c3ccccc3oc2cc1O`, for which the IC50 in data set [1] was greater than 100 µM. For the same molecule, in data set [2], the Activity result is “Non-toxic”. For `COc1ccc([C@@H]2COc3cc(O)ccc3C2=O)c(OC)c1OC` [(3R)-3'-O-METHYLVIOLANONE], the IC50 in data set [1] is greater than 100 µM. Besides, in data set [2], the Activity result is listed as “Non-toxic”. The matching figures for `COc1cc(-c2coc3cc(O)cc(O)c3c2=O)c(OC)cc1O` [OLIBERGIN A]: 45.5 µM and “Non-toxic”.

In the case of `N=C(N)NN` [PIMAGEDINE], in data set [1], the IC50 was 16.6 µM. Take `C=C[C@H](c1ccccc1O)c1cc(OC)c(OC)cc1OC` [5-O-METHYLLATIFOLIN]: the IC50 in data set [1] is 74 µM. Moreover, in data set [2], the Activity result is “Non-toxic”. As to `COc1ccc(-c2coc3cc(O)ccc3c2=O)cc1` [FORMONONETIN], in data set [1], the IC50 turned out to be 56.1 µM. Further, the Activity result in data set [2] was “Non-toxic”. For `COc1cc2oc(=O)cc(-c3ccc(O)cc3)c2cc1O` [MELANETTIN], in that order: 53.2 µM and “Non-toxic”.

Regarding `O=C(/C=C/c1ccc(O)cc1)c1ccc(O)cc1O` [ISOLIQUIRITIGENIN], the IC50 in data set [1] worked out at 72 µM. Besides, in data set [2], the Activity result is “Non-toxic”. Consider `C=C[C@H](c1cccc(O)c1)c1cc(OC)c(OC)cc1OC`, for which the IC50 in data set [1] was found to be 70.3 µM. In addition, in data set [2], the Activity entry is “Non-toxic”.

As for `O=c1c(-c2ccc(O)c(O)c2)coc2cc(O)cc(O)c12` [OROBOL], in data set [1], the IC50 stood at 43.7 µM. The Activity entry in data set [2] was “Non-toxic”. The matching figures for `COc1ccc([C@@]2(O)COc3cc(O)ccc3C2=O)c(OC)c1`: greater than 100 µM and “Non-toxic”. The matching figures for `COc1cc(OC)c([C@H]2COc3cc(O)ccc3C2=O)cc1OC`: greater than 100 µM and “Non-toxic”. For `O=C(c1ccc(O)cc1O)[C@H](O)Cc1ccc(O)cc1`, in that order: greater than 100 µM and “Non-toxic”. Consider `C=C[C@H](c1ccccc1)c1cc(OC)c(OC)cc1O`, for which the IC50 in data set [1] is 73.9 µM. In data set [2], the Activity entry was “Non-toxic”.
